Measured values: PubChem BioAssay AID1259411 (Chemical Carcinogenesis Research Information System (CCRIS), 2018)
Calls of active or inactive are those of the source. The rule behind the calls is not given here.

Tested on: rodent carcinogenicity bioassays, tumor incidence
Assay: CCRIS carcinogenicity studies
Procedure, shortened: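 NCI-built, expert-reviewed records of carcinogenicity and related test outcomes (mutagenicity, tumor promotion/inhibition) compiled from published and report sources, historical span 1985-2011, not updated.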

SMILES: CN(C)CCOC(C)(c1ccccc1)c1ccccn1 (configuration not stated)
- carcinogen call (Species: MOUSE, Strain/Sex: B6C3F1/FEMALE, Route: ORAL, Dose: 0, 190, 375, 750 PPM IN DIET FOR 2 YR (STUDY DURATION: 2 YR), Dose: 0, 190, 375, 750 PPM IN DIET FOR 2 YR (STUDY DURATION: 2 YR), Tumor Site: Type of Lesion: LIVER: HEPATOCELLULAR ADENOMA, THYROID: FOLLICULAR CELL ADENOMA): active; positive
- carcinogen call (Species: MOUSE, Strain/Sex: B6C3F1/MALE, Route: ORAL, Dose: 0, 190, 375, 750 PPM IN DIET FOR 2 YR (STUDY DURATION: 2 YR), Dose: 0, 190, 375, 750 PPM IN DIET FOR 2 YR (STUDY DURATION: 2 YR), Tumor Site: Type of Lesion: LIVER: HEPATOCELLULAR ADENOMA, THYROID: FOLLICULAR CELL ADENOMA): active; positive
- carcinogen call (Species: RAT, Strain/Sex: F344/FEMALE, Route: ORAL, Dose: 0, 500, 1000, 2000 PPM IN DIET FOR 2 YR (STUDY DURATION: 2 YR), Dose: 0, 500, 1000, 2000 PPM IN DIET FOR 2 YR (STUDY DURATION: 2 YR)): inactive; negative

SMILES: Cl/C=C\CCl
- carcinogen call (Species: MOUSE, Strain/Sex: ICR/FEMALE, Route: SUBCUTANEOUS, Dose: 3.0 MG/INJ IN 0.05 ML TRIOCTANOIN 1/WK, Tumor Site: Type of Lesion: INJECTION SITE: FIBROSARCOMA): active; positive

SMILES: Oc1ccc2ccccc2c1N=Nc1ccc(N=Nc2ccccc2)cc1
- carcinogen call (Species: MOUSE, Strain/Sex: SWISS-WEBSTER/FEMALE, Route: DERMAL, Dose: 0, 1% IN 0.1 ML 0.1% SODIUM LAURYL SULFATE 1/WK FOR 18 MO (STUDY DURATION: 18 MO)): inactive; negative
- carcinogen call (Species: MOUSE, Strain/Sex: SWISS-WEBSTER/MALE, Route: DERMAL, Dose: 0, 1% IN 0.1 ML 0.1% SODIUM LAURYL SULFATE 1/WK FOR 18 MO (STUDY DURATION: 18 MO)): inactive; negative

SMILES: CC(Cl)(Cl)Cl
- carcinogen call (Species: MOUSE, Strain/Sex: B6C3F1/FEMALE, Route: INHALATION, Dose: 0, 150, 500, 1500 PPM IN AIR 6 HR/D 5 D/WK FOR 24 MO (STUDY DURATION: 24 MO), Dose: 0, 150, 500, 1500 PPM IN AIR 6 HR/D 5 D/WK FOR 24 MO (STUDY DURATION: 24 MO)): inactive; negative
- carcinogen call (Species: MOUSE, Strain/Sex: B6C3F1/MALE, Route: INHALATION, Dose: 0, 150, 500, 1500 PPM IN AIR 6 HR/D 5 D/WK FOR 24 MO (STUDY DURATION: 24 MO), Dose: 0, 150, 500, 1500 PPM IN AIR 6 HR/D 5 D/WK FOR 24 MO (STUDY DURATION: 24 MO)): inactive; negative
- carcinogen call (Species: RAT, Strain/Sex: F344/FEMALE, Route: INHALATION, Dose: 0, 150, 500, 1500 PPM IN AIR 6 HR/D 5 D/WK FOR 24 MO (STUDY DURATION: 24 MO), Dose: 0, 150, 500, 1500 PPM IN AIR 6 HR/D 5 D/WK FOR 24 MO (STUDY DURATION: 24 MO)): inactive; negative
- carcinogen call (Species: RAT, Strain/Sex: F344/MALE, Route: INHALATION, Dose: 0, 150, 500, 1500 PPM IN AIR 6 HR/D 5 D/WK FOR 24 MO (STUDY DURATION: 24 MO), Dose: 0, 150, 500, 1500 PPM IN AIR 6 HR/D 5 D/WK FOR 24 MO (STUDY DURATION: 24 MO)): inactive; negative

SMILES: Nc1ccc(N)c(Cl)c1
- carcinogen call (Species: MOUSE, Strain/Sex: B6C3F1/FEMALE, Route: ORAL, Dose: 0, 0.3, 0.6% OF DIET, Dose: 0, 0.3, 0.6% OF DIET): inactive; negative
- carcinogen call (Species: MOUSE, Strain/Sex: B6C3F1/MALE, Route: ORAL, Dose: 0, 0.3, 0.6% OF DIET, Dose: 0, 0.3, 0.6% OF DIET): inactive; negative
- carcinogen call (Species: RAT, Strain/Sex: F344/FEMALE, Route: ORAL, Dose: 0, 0.15, 0.30% OF DIET, Dose: 0, 0.15, 0.30% OF DIET): inactive; negative
- carcinogen call (Species: RAT, Strain/Sex: F344/MALE, Route: ORAL, Dose: 0, 0.15, 0.30% OF DIET, Dose: 0, 0.15, 0.30% OF DIET): inactive; negative

SMILES: CCCCCCCCCN(C)N=O
- carcinogen call (Species: RAT, Strain/Sex: F344/MALE, Route: GAVAGE, Dose: 0, 100 MG/ML IN CORN OIL 2/WK FOR 30 WK, STUDY DURATION: 60 WK, Dose: 0, 100 MG/ML IN CORN OIL 2/WK FOR 30 WK, STUDY DURATION: 60 WK, Tumor Site: Type of Lesion: LUNG: ADENOCARCINOMA, NASAL CAVITY: CARCINOMA, PAPILLOMA, LIVER: CHOLANGIOCARCINOMA, HEPATOCELLULAR TUMOR, Tumor Site: Type of Lesion: LUNG: ADENOCARCINOMA, NASAL CAVITY: CARCINOMA, PAPILLOMA, LIVER: CHOLANGIOCARCINOMA, HEPATOCELLULAR TUMOR): active; positive

SMILES: CC(=O)Nc1cc(NS(=O)(=O)C(F)(F)F)c(C)cc1C
- carcinogen call (Species: Mouse, Strain/Sex: Strain not specified by Department of Pesticide Regulation/Female (60/Group), Route: Oral, Dose: 0, 600, 1800, 6000 ppm of 93% mefluidide in diet for 18-19 mo, study duration 19 mo, Dose: 0, 600, 1800, 6000 ppm of 93% mefluidide in diet for 18-19 mo, study duration 19 mo): inactive; negative
- carcinogen call (Species: Mouse, Strain/Sex: Strain not specified by Department of Pesticide Regulation/Male (60/Group), Route: Oral, Dose: 0, 600, 1800, 6000 ppm of 93% mefluidide in diet for 18-19 mo, study duration 19 mo, Dose: 0, 600, 1800, 6000 ppm of 93% mefluidide in diet for 18-19 mo, study duration 19 mo): inactive; negative

SMILES: CC(F)(Cl)Cl
- carcinogen call (Species: RAT, Strain/Sex: SPRAGUE-DAWLEY/FEMALE, Route: INHALATION, Dose: 0, 1500, 5000, 20000 PPM 6 HR/D 5 D/WK FOR 104 WK (THE HIGH EXPOSURE LEVEL WAS INCREASED FROM 15000 PPM TO 20000 PPM AFT, Dose: 0, 1500, 5000, 20000 PPM 6 HR/D 5 D/WK FOR 104 WK (THE HIGH EXPOSURE LEVEL WAS INCREASED FROM 15000 PPM TO 20000 PPM AFT): inactive; negative
- carcinogen call (Species: RAT, Strain/Sex: SPRAGUE-DAWLEY/MALE, Route: INHALATION, Dose: 0, 1500, 5000, 20000 PPM 6 HR/D 5 D/WK FOR 104 WK (THE HIGH EXPOSURE LEVEL WAS INCREASED FROM 15000 PPM TO 20000 PPM AFT, Dose: 0, 1500, 5000, 20000 PPM 6 HR/D 5 D/WK FOR 104 WK (THE HIGH EXPOSURE LEVEL WAS INCREASED FROM 15000 PPM TO 20000 PPM AFT, Tumor Site: Type of Lesion: TESTES: INTERSTITIAL CELL ADENOMA): active; positive

SMILES: CC1CN1 (configuration not stated)
- carcinogen call (Species: RAT, Strain/Sex: STRAIN-CD/FEMALE, Route: GAVAGE, Dose: 10.5, 20.7 MG/KG (AVE DOSE) IN WATER 2/WK FOR 58 WK (LOW DOSE) OR 27 WK (HIGH DOSE), Tumor Site: Type of Lesion: INTESTINES: ADENOCARCINOMA, BRAIN (CEREBRUM): GLIOMA, EAR (DUCT): SQUAMOUS CELL CARCINOMA, MAMMARY GLAND: ADENOCARCINOMA, Tumor Site: Type of Lesion: INTESTINES: ADENOCARCINOMA, BRAIN (CEREBRUM): GLIOMA, EAR (DUCT): SQUAMOUS CELL CARCINOMA, MAMMARY GLAND: ADENOCARCINOMA): active; positive
- carcinogen call (Species: RAT, Strain/Sex: STRAIN-CD/MALE, Route: GAVAGE, Dose: 10.5, 20.7 MG/KG (AVE DOSE) IN WATER 2/WK FOR 58 WK (LOW DOSE) OR 27 WK (HIGH DOSE), Tumor Site: Type of Lesion: HEMATOPOIETIC SYSTEM (LEUKEMIA): GRANULOCYTIC LEUKEMIA, BRAIN (CEREBRUM): GLIOMA, EAR (DUCT): SQUAMOUS CELL CARCINOMA, I, Tumor Site: Type of Lesion: HEMATOPOIETIC SYSTEM (LEUKEMIA): GRANULOCYTIC LEUKEMIA, BRAIN (CEREBRUM): GLIOMA, EAR (DUCT): SQUAMOUS CELL CARCINOMA, I): active; positive

SMILES: O=C(Cn1ccnc1[N+](=O)[O-])NCc1ccccc1
- carcinogen call (Species: MOUSE, Strain/Sex: SWISS/FEMALE, Route: INTRAPERITONEAL, Dose: 0, 8 UG/G BW 1/D FOR 30 DAYS (STUDY DURATION: LIFETIME), Tumor Site: Type of Lesion: LYMPHATIC SYSTEM: LYMPHOMA): active; positive
- carcinogen call (Species: MOUSE, Strain/Sex: SWISS/FEMALE, Route: INTRAPERITONEAL, Dose: 0, 8 UG/G BW 1/D FOR 60 DAYS (STUDY DURATION: LIFETIME), Tumor Site: Type of Lesion: LYMPHATIC SYSTEM: LYMPHOMA): active; positive

SMILES: c1ccc2c(c1)ccc1nc3ccc4ccccc4c3cc12
- carcinogen call (Species: MOUSE, Route: DERMAL, Tumor Site: Type of Lesion: INTEGUMENTARY SYSTEM (SKIN)): active; positive
- carcinogen call (Species: MOUSE, Route: SUBCUTANEOUS, Tumor Site: Type of Lesion: LUNG): active; positive
- carcinogen call (Species: MOUSE, Strain/Sex: HSD:ICR(BR)/FEMALE, Route: DERMAL, Dose: 0, 50 NMOL IN 50 µL ACETONE 2/WK FOR 99 WK (STUDY DURATION: 99 WK), Tumor Site: Type of Lesion: SKIN: TUMOR): active; positive
- carcinogen call (Species: RAT, Strain/Sex: OSBORNE-MENDEL/FEMALE, Route: LUNG IMPLANT, Dose: 0, 0.1, 0.3, 1.0 MG IN BEESWAX/TRICAPRYLIN (STUDY DURATION: LIFETIME), Dose: 0, 0.1, 0.3, 1.0 MG IN BEESWAX/TRICAPRYLIN (STUDY DURATION: LIFETIME)): inactive; negative
